This note sets out measurements from patent publication US9352010B2, “Treatment of HIV-1 infection and AIDS” (The J. David Gladstone Institutes, priority 2011, dated 2016).

Assay [1] has as its system HLAC CD4 T-cells. The experiment in a line: HLAC cells overlaid on virus-producing 293T-cells, CD4 T-cell depletion. In kind it is cell-based, human. To be noted: 24 hours co-culture. On the procedure: HLACs were infected with viruses derived from the indicated HIV proviral clones in the presence of the indicated concentrations of AZT or in the absence of drugs. Six days after infection the amount of p24^gag in the medium was determined by FLAQ assay. The amount of p24^gag in the medium after infection wash (day 0) was defined as 0%. […] Viral incorporation of endogenous A3G was measured by immunoblot analysis of purified NL4-3 and Δvif NL4-3 virions harvested from 1 ml of supernatant from infected HLACs. Doses reflect 1:10 dilutions. […] Resting or activated CFSE-labeled cells were co-cultured with cells infected with WT or Δvif NL4-3 in the presence or absence of the following drugs, AZT (5 μM), AMD3100 (250 nM), the NNRTIs Efavirenz (100 nM), and Nevirapine (1 μM), or the integration inhibitors Raltegravir (30 μM) and 118-D-24 (60 μM). Data are representative of four independent experiments performed with cells from four different donors. (E) A method to assess indirect killing in HLAC with non-infectious HIV-1 clones. Fresh human tonsil is processed into HLAC and cells are cultured in suspension. At the same time 293T-cells are transfected with 1 μg HIV-1 DNA in a 24-well plate. After 12 hours, 293T-cells are washed and overlayed with 3×10^6 HLAC cells in RPMI in the presence of the indicated drugs. Virus-producing 293T-cells directly interact with target overlaying HLAC cells. After 24 hours, the HLAC suspensions are collected from wells and analyzed by flow cytometry. […] HLAC were cultured with the indicated drugs 3 hours before co-culture with 293T-cells. Percentages are normalized to the number of viable CD4 T-cells in HLAC overlaying non-transfected 293T-cells in the presence of AZT, as depicted by (*). Error bars represent standard error of the mean of three experiments performed using cells from three different HLAC donors.

Assay [2] has as its system ISRE-GFP H35 cells. The assay is described as follows: ISRE-GFP H35 reporter cells. To be noted: AZT 5 μM, efavirenz 100 nM, raltegravir 30 μM. The format is cell-based, rat. On the procedure: Hepatocyte-derived reporter ISRE-GFP H35 cells were maintained as previously described (King et al., 2007, Lab Chip 7:77-85; Patel et al., 2009, Proc Natl Acad Sci USA 106:12867-12872). For microscopic imaging, ISRE-GFP reporter H35 cells were cultured on 35 mm glass bottom culture dishes (MatTeck) and were treated with AZT (5 μM), Efavirenz (100 nM), or Raltegravir (30 μM) 12 hours before infection. Cells were then infected with 2 μg/ml of replication competent VSV-G pseudotyped NL4-3. After 48 hours incubation at 37° C., cells were fixed in 2% paraformaldehyde at 25° C. for 1 hour, washed with PBS and stained with 10 μg/ml Hoechst 33342 (Invitrogen) and 1 μg/ml 7-AAD (eBioscience) for 15 min at 25° C. Cells were washed 3 times with PBS and were analyzed with an Axio observer Z1 microscope (Zeiss) equipped with an EC Plan NEOFLUAR 10×/0.3 PHM27 objective, filter sets 38HE, 45, and 49, and an Axiocam MRM REV 3.

In assay [3] the test system is caspase-1 and caspase-3. The assay is described as follows: Intracellular caspase activity after spinoculation with NL4-3. The format is cell-based, human. Conditions: AZT 5 μM, efavirenz 100 nM, T20 10 μg/ml, 3 days. On the procedure:
HLACs were subjected to intracellular analysis of caspases activity and cytokine expression 3 days after spinoculation with NL4-3. Intracellular caspase-1, -3, -6, -8, and -9 activities were analyzed with a CaspaLux1 E1D2, Phiphilux G1D2, CaspaLux6 J1D2, CaspaLux 8 L1D2, and CaspaLux 9 M1D2 kits (OncoImmunin), respectively, at 37° C. for 15 min, followed by staining with PE anti-CD4, and APC anti-CD8, at 4° C. for 15 min. For annexin V analysis, cells were stained with APC-conjugated annexin V together with PE anti-CD4, FITC anti-CD8, and with 0.5 μg/ml ethidium monoazide (E-1374, Molecular Probes) for 15 min at 4° C. For intracellular cytokine capture, cells were incubated with 2 μM protein transport inhibitor GolgiStop (BD Biosciences) containing monensin, and 5 μg/ml Brefeldin A (EMD biosciences) at 37° C. for 6 hours before analysis. Cells were then stained with anti-CD4 and anti-CD8 antibodies at 4° C. for 15 min, and fixed in 1% paraformaldehyde at 4° C. for 1 hour. Fixed cells were washed extensively with PBS and were stained in 0.2% saponin buffer (PBS+2% FBS+0.2% saponin) containing PE anti-human TNFα (R&D Systems), FITC anti-human IFNβ (PBL Biomedical laboratories), PE anti-human IL-1β (BD Biosciences), or APC anti-phosphorylated p53 at serine 37 (pS37) at 4° C. for 1 hour.

The subject of assay [4] is HLAC CD4 T-cells. The assay is described as follows: Spinoculation of HLAC with HIV-1, CD4 T-cell depletion. The format is cell-based, human. To be noted: ≧2 μg p24gag/200 μl, within 12 hours. Here is the method:
(A) The spinoculation procedure. (B) Flow cytometry of viable CD4 versus CD8-T-cells in HLAC three days after spinoculation in the presence of the indicated drugs. Data represent live-gated cells, based on the forward-scatter versus side-scatter profile of the complete culture. Of note, apoptotic cells were included in the analysis of caspases activity and cytokine expression (FIG. 10E, F). Drugs concentrations: AZT 5 μM; Efavirenz 100 nM; AMD3100 250 nM; T20 10 μg/ml. The data are representative results of six independent experiments with six different donors. […] (C) Highly permissive SupT1 CD4 T leukemic cells were infected with NL4-3 and cultivated for 3 days to allow substantial infection but not syncytia formation. […] After 2.5 days of additional culture, the extent of syncytia formation in each sample was evaluated by light microscopy. […] Results are representative of three independent experiments.
Fresh HLAC cells are cultured overnight in a V-bottom 96-well plate (1×10^6 cells/well) in the presence of drugs and then chilled on ice. […] The cold temperature allows virion attachment but prevents virion fusion. HIV-coated cells are then tightly packed into a pellet by high-speed centrifugation (1200 g) for 2 hours at 4° C. This step presses the virus between cell membranes, exerting a uniform and consistent attachment. […]

`c1cc(CN2CCCNCCNCCCNCC2)ccc1CN1CCCNCCNCCCNCC1` [AMD3100]: the “loss of HLAC CD4 T-cells over NL4-3-transfected 293T-cells” value (“loss … over NL4-3-transfected 293T-cells” for short) in assay [1] is “completely blocked”.

As for `Cc1cn([C@H]2C[C@H](N=[N+]=[N-])[C@@H](CO)O2)c(=O)[nH]c1=O` [AZT], the “loss … over NL4-3-transfected 293T-cells” value in assay [1] is “occurred both in the presence and absence of AZT”. The “GFP expression and cell death induced by VSV-G pseudotyped HIV-1 virions” value in assay [2] is “induced GFP expression and cell death in the presence or absence of AZT”.

In the case of `O=C1Nc2ccc(Cl)cc2[C@@](C#CC2CC2)(C(F)(F)F)O1` [efavirenz], the “activation of caspase-1 and caspase-3 in abortively infected CD4 T-cells” value in assay [3] is given as “prevented activation of these caspases”. In addition, in assay [4], the “CD4 T-cell killing after spinoculation with high doses of HIV-1” value was “is not prevented”. Besides, the “loss … over NL4-3-transfected 293T-cells” value in assay [1] was “completely blocked”. For the same molecule, in assay [2], the “GFP expression and cell death induced by VSV-G pseudotyped HIV-1 virions” value is given as “blocked”.

Turning to enfuvirtide, in assay [3], the “activation of caspase-1 and caspase-3 in abortively infected CD4 T-cells” value is reported as “prevented activation of these caspases”. For the same molecule, in assay [4], the “CD4 T-cell killing after spinoculation with high doses of HIV-1” value was “prevented CD4 T-cell killing”.
